# Patent US8410170B2, “Use of isothiocyanates compounds in treating prostatic diseases and skin cancer” (Wuxi JC Pharmaceutical Technology Co., Ltd., priority 2005, dated 2013)
# Counter-ions that a name gives are not always drawn.
# What was measured:
# [1] = test system: human androgen independent prostate cancer PC-3 cells; test: Xenograft of PC-3 in nude mice; format: in vivo, BALB/c nude mice; details: for Inhibition of PC-3 tumor growth: at terminal, diet containing 8 μM/g for 30 days
# Source text: Immunodeficient BALB/c nude mice, male, 5 weeks old, were purchased from Animal Center, Chinese Academy of Sciences, Shanghai, China. The animals were housed in an SPF animal lab. Human androgen independent prostate cancer PC-3 cells, in the form of a pellet (approximately 1×10^6 cells per animal), were mixed with a 50% volume of Matrigel and implanted s.c. in the flank of the animal. Twenty-four hrs after the transplant, the mice were randomly divided into two groups, eight animal each. One group served as untreated control and fed with regular AIN76 diet, and another one as treatment group in which AIN76 diet containing 8 μM/g of PEITC-NAC was provided. The animals were treated for 30 days, and tumor incidence and size were measured at day 7, 10, 22. Twenty-four hrs after the last administration, animals were euthanized, and body and tumors were weighted. Western blot was used to follow the possible change of AR expression.
# GSTP1 = test: Western blot to detect GSTP1 protein in LNCaP cells; format: cell-based, human; details: LNCaP cells exposed 24 hrs
# Experimental: Western blot to detect GSTP1 protein (FIG. 1): […] The cells were harvested, washed and total cellular proteins were extracted as described previously (Wang, […], et al. […] Cancer Res 61(20): 7544-51, 2001). Fifty μg cellular extracts were separated on a SDS-PAGE, electro-transferred to nitrocellulose filters, and immunoblotted initially with antibodies against GSTP1. The same membranes were stripped and re-probed with β-actin for loading control. The result was recorded by ECL films.
# BPH = test: Therapeutic effects on BPH: Test One (castrated rats, testosterone propionate); format: in vivo, SD rats; details: estradiol 0.1 mg/rat s.c., one month
# Experimental: Sixty male SD rats were randomly divided into 6 groups, ten each. The animals were anesthetized using ketamine and castrated by removing testis under sterile conditions. After the surgery, the penicillin was injected to prevent the animals from infection. One week later, the testosterone propionate was injected subcutaneously at dose of 1 mg/rat for a month, once a day. Group 1 was served as a negative control group, and the animals of group 1 were given saline orally without any active pharmaceutical ingredient for a month beginning on the same day the testosterone propionate was injected. Group 2 was served as positive control group in which animals were given estradiol subcutaneously at a dose of 0.1 mg/rat for a month beginning on the same day the testosterone propionate was injected. Groups from 3 to 6 was served as drug treatment groups in which animals were given tested articles on the same day the testosterone propionate was injected.
# Twenty-four hrs after the last dosage, the animals were euthanized and weighed. Volume and weight of prostate were measured. The averages of volume/weight and organ coefficient (average weight of prostate/average of body weight) were calculated, and statistical analysis performed (t test).
# androgen-induced BPH = test: Therapeutic effects on BPH: Test Two (castrated rats, testosterone propionate; weights and histopathology); format: in vivo, SD rats; set-up: Histopathological score of BPH, Average X ± SD: scale not given here
# Experimental: Thirty-six male SD rats were randomly divided into 4 groups, nine each. Group 1 was served as blank control group (pseudo-surgery control group) in which animals were under the same surgical procedures except no testis was sectioned and fed normally. Groups from 2 to 4 were served as treatment groups in which all animals were anesthetized using ketamine and castrated by removing both testises under sterile conditions. After the surgery, the penicillin was injected to prevent the animals from infection. One week later, the testosterone propionate was injected subcutaneously at dose of 5 mg/kg, once a day for a month. […] Group 3 was served as positive control group in which animals were given Proscar by gavage at dose of 0.1 mg/rat/day for a month beginning on the same day that the testosterone propionate was injected.
# Twenty-four hrs after the last dose, the animals were euthanized and weighed. Volume and weight of prostate were measured. The averages of prostate volume/weight and organ coefficient (average weight of prostate/average of body weight) were calculated, and statistical analysis performed (t test).
# (§1) Prostate tissues of animals from different groups were embedded with paraffin. The tissue sections were stained with H&E for histpathological examination by an anatomical pathologist.
# [2] = test system: non-bacterial prostatitis; test: Therapeutic effects on non-bacterial prostatitis (Xiaozhiling injection into prostate); format: in vivo, SD rats; set-up: Histopathological score of prostatitis, Overall Average X ± SD: scale not given here
# Experimental: Fifty-five male SD rats were randomly divided into 6 groups, 9 each, except the negative control group for which 10 animals were used. All animals from group 1 to 6 were anesthetized by injection of ketamine under sterile conditions and incised around 1.5 cm with a sterilized surgery scalpel at middle of abdomen. Animals in Group 1 were injected penicillin to prevent infection, and given distill water, 10 ml/kg, once a day, 5 times a week for 5 weeks. Groups from 2 to 6 injected 25% Xiaozhiling into left and right lobes of prostate, 0.1 ml for each lobe and sew the muscle and skin with #1 silk thread. The animals were then given penicillin to prevent infectious. Group 2 was served as negative control group in which animals were treated with distill water by gavage 24 hrs after the Xiaozhiling injection, once a day, 5 times a week for 5 weeks. Group 3 was served as positive control group in which animals were treated with GENURIN by gavage 24 hrs after the Xiaozhiling injection at dose of 60 mg/kg, once a day, 5 times a week (escaping weekend) for 5 weeks. […] On the last dosing day, urine samples from different groups that covered periods of 1, 2 and 3 hrs were collected.
# Twenty-four hrs after the last dose, the animals were euthanized and weighed. Volume and weight of prostate were measured. The averages of the prostate weight/volume and organ coefficient (average weight of prostate/average of body weight) were calculated, and statistical analysis performed (t test).
# as §1
# [3] = test system: xenograft B16 mouse tumor; details: CTX 20 mg/kg/d i.p., 15 days
# Experimental: The B16 mouse melanoma cells at exponential growth phase were suspended in PBS. […] Adjusted the suspension to a cell concentration of approximately 1×10^7/ml. 0.2 ml of the suspension were transplanted subcutaneously into right axillary subcutis for passaging.
# Under sterile condition the xenograft B16 mouse tumor in mice was stripped from axillary subcutis. After cutting by scissors, the tumor with saline (1:3) was ground in a glass homogenizer. Monocell suspension was made with saline. […] Then adjusted the suspension to a cell density of approximately 1×10^7/ml with saline. 0.2 ml were transplanted subcutaneously into right axillary subcutis of each mouse. After transplanting, randomly divided the mouse into 5 groups, 12 each.
# Tumors were taken out, sizes and weights were measured, and the percent of inhibitions were calculated.
# [4] = Proscar 0.5 mg/kg gavage, one month
# [5] = GENURIN 60 mg/kg gavage, 5 weeks
# [6] = GENURIN 60 mg/kg, last dosing day
molecule,measurement,setting,value
N-acetylcysteine conjugate of phenethyl isothiocyanate [PEITC-NAC],Inhibition of PC-3 tumor growth,[1],53.3%
"CC(=O)NC(CSC(=S)NCCc1ccccc1)C(=O)O (centres unmarked) [PEITC-NAC, N-acetylcysteine conjugate of phenethyl isothiocyanate]",expression of GSTP1 (Western blot),GSTP1,effectively induce
same,Incidence,[1]; at terminal (30 days),87.5%
same,No. of Animals with Tumor,[1]; at terminal (30 days),7
same,No. of Animals without Tumor,[1]; at terminal (30 days),1
same,Inhibition of PC-3 tumor growth,[1],53.3%
same,Incidence,[1]; day 7,75%
same,No. of Animals without Tumor,[1]; day 7,2
same,No. of Animals with Tumor,"[1]; day 7 after tumor implantation, diet containing 8 μM/g, 8 animals",6
same,Incidence,[1]; day 10,75%
same,No. of Animals with Tumor,[1]; day 10,6
same,No. of Animals without Tumor,[1]; day 10,2
same,Incidence,[1]; day 22,87.5%
same,No. of Animals with Tumor,[1]; day 22,7
same,No. of Animals without Tumor,[1]; day 22,1
"C[C@]12CC[C@@H]3c4ccc(O)cc4CC[C@H]3[C@@H]1CC[C@@H]2O [estradiol, reference compound]",Average Weight of Prostate,BPH,0.73 grams
same,Organ Coefficient,BPH,0.23%
CC(C)(C)NC(=O)[C@H]1CC[C@H]2[C@@H]3CC[C@H]4NC(=O)C=C[C@]4(C)[C@H]3CC[C@]12C [Proscar],Average Body Weight,"androgen-induced BPH; Proscar 0.5 mg/kg (0.1 mg/rat/day) gavage, one month",340 ± 30.5 g
same,Average Volume of Prostate,androgen-induced BPH; [4],1.61 ± 0.16 cm^3
same,Average Weight of Prostate,androgen-induced BPH; [4],1.30 ± 0.12 g
same,Inhibition of Organ Coefficient,androgen-induced BPH; [4],11.63%
same,Organ Coefficient,androgen-induced BPH; [4],0.38 ± 0.05%
same,Acinar Density: no. of animals with score 0,"androgen-induced BPH; Proscar, 9 animals",1
same,Acinar Density: no. of animals with score +,"androgen-induced BPH; Proscar, 9 animals",2
same,Acinar Density: no. of animals with score ++,"androgen-induced BPH; Proscar, 9 animals",6
same,Acinar Density: no. of animals with score +++,"androgen-induced BPH; Proscar, 9 animals",0
same,"Connective tissue proliferation, or papillary hyperplasia: no. of animals with score 0","androgen-induced BPH; Proscar, 9 animals",8
same,"Connective tissue proliferation, or papillary hyperplasia: no. of animals with score +","androgen-induced BPH; Proscar, 9 animals",1
same,"Connective tissue proliferation, or papillary hyperplasia: no. of animals with score ++","androgen-induced BPH; Proscar, 9 animals",0
same,"Connective tissue proliferation, or papillary hyperplasia: no. of animals with score +++","androgen-induced BPH; Proscar, 9 animals",0
same,Enlargement of Lumen of Gland: no. of animals with score 0,"androgen-induced BPH; Proscar, 9 animals",3
same,Enlargement of Lumen of Gland: no. of animals with score +,"androgen-induced BPH; Proscar, 9 animals",3
same,Enlargement of Lumen of Gland: no. of animals with score ++,"androgen-induced BPH; Proscar, 9 animals",3
same,Enlargement of Lumen of Gland: no. of animals with score +++,"androgen-induced BPH; Proscar, 9 animals",0
same,"Histopathological score of BPH, Average X ± SD","androgen-induced BPH; Proscar, 9 animals",3.33 ± 1.11
same,Secretions of Gland: no. of animals with score 0,"androgen-induced BPH; Proscar, 9 animals",5
same,Secretions of Gland: no. of animals with score +,"androgen-induced BPH; Proscar, 9 animals",2
same,Secretions of Gland: no. of animals with score ++,"androgen-induced BPH; Proscar, 9 animals",2
same,Secretions of Gland: no. of animals with score +++,"androgen-induced BPH; Proscar, 9 animals",0
same,"lumen of prostatic gland and secretary materials in the lumen, versus untreated BPH tissues (typical slide)","androgen-induced BPH; Proscar, FIG. 6.3",reduced
same,"density of prostatic acinars, versus untreated BPH tissues (typical slide)","androgen-induced BPH; Proscar, FIG. 6.4",reduced
"Cc1c(-c2ccccc2)oc2c(C(=O)OCCN3CCCCC3)cccc2c1=O [GENURIN, Flavoxate Hydrochloride, reference compound]",Average Volume of Prostate,[2]; [5],0.69 ± 0.10 cm^3
same,Average Weight of Prostate,[2]; [5],0.71 ± 0.09 g
same,Inhibition of Organ-coefficient,[2]; [5],24.62%
same,Organ Coefficient,[2]; [5],0.196 ± 0.03 %
same,Bleeding: no. of animals with score 0,"[2]; GENURIN 60 mg/kg, 9 animals",6
same,Bleeding: no. of animals with score +,"[2]; GENURIN 60 mg/kg, 9 animals",3
same,Bleeding: no. of animals with score ++,"[2]; GENURIN 60 mg/kg, 9 animals",0
same,Bleeding: no. of animals with score +++,"[2]; GENURIN 60 mg/kg, 9 animals",0
same,Chronic Inflammatory Infiltration: no. of animals with score 0,"[2]; GENURIN 60 mg/kg, 9 animals",5
same,Chronic Inflammatory Infiltration: no. of animals with score +,"[2]; GENURIN 60 mg/kg, 9 animals",4
same,Chronic Inflammatory Infiltration: no. of animals with score ++,"[2]; GENURIN 60 mg/kg, 9 animals",0
same,Chronic Inflammatory Infiltration: no. of animals with score +++,"[2]; GENURIN 60 mg/kg, 9 animals",0
same,Congestion: no. of animals with score 0,"[2]; GENURIN 60 mg/kg, 9 animals",4
same,Congestion: no. of animals with score +,"[2]; GENURIN 60 mg/kg, 9 animals",5
same,Congestion: no. of animals with score ++,"[2]; GENURIN 60 mg/kg, 9 animals",0
same,Congestion: no. of animals with score +++,"[2]; GENURIN 60 mg/kg, 9 animals",0
same,Edema: no. of animals with score 0,"[2]; GENURIN 60 mg/kg, 9 animals",6
same,Edema: no. of animals with score +,"[2]; GENURIN 60 mg/kg, 9 animals",2
same,Edema: no. of animals with score ++,"[2]; GENURIN 60 mg/kg, 9 animals",1
same,Edema: no. of animals with score +++,"[2]; GENURIN 60 mg/kg, 9 animals",0
same,Fibrous Exudation: no. of animals with score 0,"[2]; GENURIN 60 mg/kg, 9 animals",8
same,Fibrous Exudation: no. of animals with score +,"[2]; GENURIN 60 mg/kg, 9 animals",1
same,Fibrous Exudation: no. of animals with score ++,"[2]; GENURIN 60 mg/kg, 9 animals",0
same,Fibrous Exudation: no. of animals with score +++,"[2]; GENURIN 60 mg/kg, 9 animals",0
same,"Histopathological score of prostatitis, Overall Average X ± SD","[2]; GENURIN 60 mg/kg, 9 animals",1.83 ± 0.75
same,Hyperblastosis: no. of animals with score 0,"[2]; GENURIN 60 mg/kg, 9 animals",8
same,Hyperblastosis: no. of animals with score +,"[2]; GENURIN 60 mg/kg, 9 animals",1
same,Hyperblastosis: no. of animals with score ++,"[2]; GENURIN 60 mg/kg, 9 animals",0
same,Hyperblastosis: no. of animals with score +++,"[2]; GENURIN 60 mg/kg, 9 animals",0
same,Inflammatory Infiltration: no. of animals with score 0,"[2]; GENURIN 60 mg/kg, 9 animals",7
same,Inflammatory Infiltration: no. of animals with score +,"[2]; GENURIN 60 mg/kg, 9 animals",2
same,Inflammatory Infiltration: no. of animals with score ++,"[2]; GENURIN 60 mg/kg, 9 animals",0
same,Inflammatory Infiltration: no. of animals with score +++,"[2]; GENURIN 60 mg/kg, 9 animals",0
same,"urine, 1 h Period",[2]; [6],6.2 ± 1.3 mL
same,"urine, 2 h Period",[2]; [6],7.9 ± 1.9 mL
same,"urine, 3 h Period",[2]; [6],8.8 ± 1.2 mL
"O=P1(N(CCCl)CCCl)NCCCO1 (centres unmarked) [CTX, Cyclophosphamide, reference compound]",Average of Tumor Weight,[3],0.76 ± 0.41 g
same,Changes in Body Weight,[3],5.07 ± 2.64 g
same,Inhibition,[3],66.23%
